The subject of the experiment is S. cerevisiae Mot1-301 ts growth rescue, BacTiter-Glo ATP luminescence. Nature of the experiment: growth rescue of Mot1-301 ts yeast, confirmation, SUMOylation pathway inhibitor project, whole organism, S. cerevisiae, Mot1-301 ts mutant, luminescence, dose retest (AID 463204).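 Further: growth at restrictive 38.5 degrees C of Mot1-301 OY566 strain; actives raise luminescence by restoring growth of the ts mutant at high temperature.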

Experimental findings from PubChem BioAssay AID463204 (Broad Institute, 2010) are described below.

The term AC50 denotes the concentration at which the activity in the assay is half-maximal.

Calls of active or inactive are those of the source.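 How the source made its calls: active means AC50 no more than ten times the top concentration tested, that is within one log above it; inconclusive means flat curve fit with activity between 30% and 70%, or invalid poor fit; inactive means AC50 beyond ten times the top tested dose.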

Turning to `Cc1sc(NC(=O)c2ccc(Br)s2)c(C(N)=O)c1C`, the AC50 is > 42 µM (inactive).
Consider `CCOCCCNCc1ccc(OCc2ccc(F)cc2)c(OC)c1`, for which the AC50 is > 42 µM (inactive).
Regarding `CCN(CC)CC(=O)Nc1ccc(Oc2ccc(NC(=O)CN(CC)CC)cc2)cc1`, the AC50 was > 42 µM (inactive).
With `CC(=O)c1cccc(N2C(=NC(=O)C3CCCCC3)SC3CS(=O)(=O)CC32)c1` (stereo not drawn) the figure was > 42 µM (inactive).
In the case of `Cc1ccc(/C=N/NC(=O)NC23CC4CC(CC(C4)C2)C3)o1` it was > 42 µM (inactive); in that of `COc1cc2c(cc1OC)C(c1ccccc1C)CC(=O)N2` (stereo not drawn), > 42 µM (inactive).
Consider `CC1CCN(CCNC(=O)C2CCCN(S(=O)(=O)c3cccc4nsnc34)C2)CC1` (stereo not drawn), for which the AC50 was > 42 µM (inactive).
In the case of `CCN(C(=O)COC(=O)c1cc([N+](=O)[O-])ccc1N1CCOCC1)C1CCCCC1` it was > 42 µM (inactive); in that of `O=C(NCc1cccc(F)c1F)C1CCC(=O)N(C2CC2)C1` (stereo not drawn), > 42 µM (inactive); in that of `COc1ccccc1-c1nnc(SCC(=O)NC2CCS(=O)(=O)C2)n1N` (stereo not drawn), > 42 µM (inactive).
With `CCCN1C(=O)c2ccc(C(=O)Nc3nccs3)cc2C1=O` the figure was > 42 µM (inactive); with `COC(=O)c1sc(NC(=O)c2ccc(Cn3cc(Cl)cn3)o2)c(C#N)c1C`, > 42 µM (inactive); with `CCN(CC1COc2ccccc2O1)C(=S)NCCCN(C)C` (stereo not drawn), > 42 µM (inactive).
As to `C/C(=N\N=C(c1ccccc1)c1ccccc1)c1ccco1`, the AC50 was > 42 µM (inactive).
Turning to `CCN1CCCC(NC(=O)c2scc3c2CCCC3)C1` (stereo not drawn), the AC50 was > 42 µM (inactive).
With `CC(C)C1OC2(C)OC(=N)C1(C#N)C(C#N)(C#N)C2c1ccccc1` (stereo not drawn) the figure was > 42 µM (inactive); with `CCCCC(O)(CCCC)C(=O)NN(C(=O)OC)c1ccc(C)cc1`, > 42 µM (inactive).
In the case of `CN(C)S(=O)(=O)c1cccc(NC(=O)COc2nc3ccccc3nc2N2CCOCC2)c1` it was > 42 µM (inactive); in that of `COc1cccc(OC)c1OCC(O)CN1CCN(c2ccccc2)CC1` (stereo not drawn), > 42 µM (inactive).
With `CCOC(=O)NC1(Nc2ccc(C)cc2)Oc2ccccc2O1` the figure was > 42 µM (inactive); with `CCC(Cc1ccccc1)NC(=O)C1CCN(c2nn3c(=O)cc(C)nc3s2)CC1` (stereo not drawn), > 42 µM (inactive).
As for `CN(C)/C(CN1CCCCC1)=C1\N=C(c2ccccc2)OC1=O`, the AC50 is > 42 µM (inactive).
In the case of `COc1ccc(Cl)cc1N(C(=O)c1ccco1)C(C(=O)NC1CCCC1)c1ccncc1` (stereo not drawn), the AC50 is > 42 µM (inactive).
In the case of `CCCCSCCCNC(=O)Nc1cccc(OC)c1` it was > 42 µM (inactive); in that of `Brc1ccc(-c2cn3cccnc3n2)cc1`, > 42 µM (inactive).
With `Cc1ccc(O)c(CNc2nc3ccccc3n2C)c1` the figure was > 42 µM (inactive).
In the case of `C/C(CC(=O)NC1CCCCC1)=N\NC(=O)Cc1ccc(-c2ccccc2)cc1` it was > 42 µM (inactive).
Take `COc1ccc(C(=O)N2CCN(c3ccc(NC(=O)c4cccnc4)cc3)CC2)cc1`: the AC50 is > 42 µM (inactive).
In the case of `Cc1cccc(N(Cc2ccccc2)C(=O)CSC(C)C(=O)Nc2cc(C)on2)c1` (stereo not drawn) it was > 42 µM (inactive); in that of `COc1ccc(/C=C(\C#N)C(=O)c2cccn2C)cc1`, > 42 µM (inactive).
In the case of `CCOCCCNC(=O)C(c1ccc(OC)cc1)N(Cc1ccc2c(c1)OCO2)C(=O)CNC(C)=O` (stereo not drawn) it was > 42 µM (inactive).
Take `COC(=O)c1cccc(NC(=O)c2cccnc2)c1`: the AC50 is > 42 µM (inactive).
With `NC(=O)c1nsc(C(=O)N(Cc2ccc(F)cc2)C(C(=O)NC2CCCC2)c2ccco2)c1N` (stereo not drawn) the figure was > 42 µM (inactive).
In the case of `COc1ccc(-c2nc3c(c(SCC(=O)N4CCOCC4)n2)Cc2c(CO)cnc(C)c2O3)cc1` it was > 42 µM (inactive); in that of `CC/C(=N\NC(=O)c1nnn(-c2nonc2N)c1-c1cccs1)c1ccccc1`, > 42 µM (inactive); in that of `O=C(COc1ccccc1)Nc1ccc(OC(F)(F)C(F)F)c(NC(=O)COc2ccccc2)c1`, > 42 µM (inactive).
In the case of `O=c1/c(=C/c2ccco2)sc2nc(-c3ccccc3Br)nn12`, the half-maximal activity concentration (AC50) is 5.74 µM.
With `Cc1occc1-c1nnc(SCC(=O)N2CCN(c3ccccc3)CC2)n1C` the figure was > 42 µM (inactive); with `C/C(CC1(O)C(=O)Nc2ccccc21)=N\O` (stereo not drawn), > 42 µM (inactive).
In the case of `O=C(c1cc(N2C(=O)C3C4CCC(C4)C3C2=O)ccc1Cl)N1CCCCCC1` (stereo not drawn) it was > 42 µM (inactive); in that of `COc1cccc(-n2nnc3c(=O)n(CC(=O)N4CCCc5ccccc54)cnc32)c1`, > 42 µM (inactive); in that of `O=C(OCC#CCSc1nnc(-c2ccccc2)o1)c1cc2ccccc2o1`, > 42 µM (inactive).
In the case of `CN(C)c1ccc(/C=C/c2cccc[n+]2[O-])cc1` it was > 42 µM (inactive); in that of `CCOc1ccc(-n2cc(C(=O)NCCOC)c3cc(OC)c(OC)cc3c2=O)cc1`, > 42 µM (inactive).
With `CCn1c(SCc2nc3ccccc3[nH]2)nnc1-c1cccnc1`, the AC50 is > 42 µM (inactive).
As for `O=CNCCCc1nc2ccccc2n1CCc1ccccc1`, the AC50 is > 42 µM (inactive).
Consider `CCOc1ccc(OCC)c(NC(=O)C2COc3ccccc3O2)c1` (stereo not drawn), for which the AC50 was > 42 µM (inactive).
In the case of `COc1ccc(/C=N\NC(=O)c2cc(OCC(F)(F)F)ccc2OCC(F)(F)F)cc1` it was > 42 µM (inactive); in that of `Cc1ccc(/C=C/C(=O)c2ccc([N+](=O)[O-])o2)cc1`, 3.5 µM; in that of `COc1ccc(NC(=O)CC(C)C)c(OC)c1`, > 42 µM (inactive).
On to `O=C(NCc1ccccn1)C1CC(c2ccc(Cl)c(Cl)c2)=NO1` (stereo not drawn), for which the AC50 is > 42 µM (inactive).
For `Cc1ccc(-n2nnnc2C(Cl)(Cl)c2nnnn2-c2ccc(C)cc2)cc1`, the half-maximal activity concentration (AC50) is 0.73 µM.
In the case of `O=[N+]([O-])c1cncc([N+](=O)[O-])c1Nc1ccccc1Cl` it was 9.62 µM; in that of `CCOc1ccc(C(=O)Nc2ccc(N3CCN(C)CC3)cc2)cc1[N+](=O)[O-]`, > 42 µM (inactive); in that of `Cc1cc(Nc2nc3c(c(=O)n(C)c(=O)n3C)n2C)n(-c2ccc(Cl)cc2)n1`, > 42 µM (inactive).
In the case of `O=c1c2ccccc2nc(SCc2nnc(-c3ccccc3)o2)n1-c1ccc(F)cc1F` it was > 42 µM (inactive); in that of `O=c1nc(-c2ccccc2)cn[nH]1`, > 42 µM (inactive).
With `CCCCN(C/C=C/c1ccccc1OC)Cc1ccccc1` the figure was > 42 µM (inactive); with `Cc1cc2c(cc1C)-c1nnc(-c3ccc4ccccc4n3)n1C(C)(C)C2`, > 42 µM (inactive); with `Oc1c(Cl)cc(Cl)cc1/C=N/c1nc(-c2ccc(Cl)cc2)cs1`, 34.1 µM.
As for `COc1ccc(C)cc1NC(=O)C12CCC(C)(C(=O)O1)C2(C)C` (stereo not drawn), the AC50 was > 42 µM (inactive).
For the compound `CCC(C)(C)n1nnnc1C(c1ccc(OC)c(OC)c1)N1CCN(c2cccc(OC)c2)CC1` (stereo not drawn), the AC50 was > 42 µM (inactive).
In the case of `Cc1nc(N2CCN(c3ccccn3)CC2)c2c(C)c(C(=O)N3CCN(c4ccccc4F)CC3)sc2n1` it was > 42 µM (inactive).
With `CN(C)C(=O)c1cc(C(=O)c2ccc(C(F)(F)F)cc2F)c[nH]1` the figure was > 42 µM (inactive); with `CCOC(=O)C(NC(=O)c1ccccc1)(N1CCOCC1)C(F)(F)F` (stereo not drawn), > 42 µM (inactive); with `O=C(COC(=O)COc1ccccc1Cl)Nc1ccccc1OC(F)F`, > 42 µM (inactive).
In the case of `Cc1cccc(C)c1NS(=O)(=O)c1ccc(OCCNS(C)(=O)=O)cc1` it was > 42 µM (inactive); in that of `CCOc1ccc(CCNC(=O)COC(=O)c2cccc(OC)c2O)cc1OCC`, > 42 µM (inactive); in that of `O=C(N/N=C/c1cccc([N+](=O)[O-])c1)C1COc2ccccc2O1` (stereo not drawn), > 42 µM (inactive).
In the case of `N#C/C(=C\c1cn(-c2ccccc2)nc1-c1cccnc1)c1nnc2n1CCCCC2`, the AC50 was > 42 µM (inactive).
On to `O=C(COC(=O)c1cccc(Br)c1)Nc1ccc2[nH]c(=O)[nH]c2c1`, for which the AC50 was > 42 µM (inactive).
In the case of `CCCCc1ccc(NC(=S)NCc2cccs2)cc1` it was 41.9 µM; in that of `CC(NC(=O)c1cnc2n(c1=O)CCS2)c1ccccc1` (stereo not drawn), > 42 µM (inactive); in that of `COCCn1c(N)c(N(Cc2ccccc2)C(=O)CN2C(=O)NC(C)(c3ccccc3)C2=O)c(=O)[nH]c1=O` (stereo not drawn), > 42 µM (inactive).
With `C=C(C)C(=O)Nc1cccnc1Oc1ccc(F)cc1F` the figure was > 42 µM (inactive); with `O=C(N/C(=C/c1ccc2c(c1)OCO2)C(=O)N1CCOCC1)c1cccs1`, > 42 µM (inactive).
`Cc1ccc(N2CN(CCc3ccccc3)CNC2=S)cc1`: the AC50 is > 42 µM (inactive).
With `COc1ccccc1CNc1ncnc2c1nnn2Cc1ccccc1` the figure was 40.1 µM.
With `CN1C(C(=O)Nc2ccccn2)=C(O)c2sccc2S1(=O)=O` the figure was > 42 µM (inactive); with `COc1cc(/C=C(\NC(=O)c2ccccc2)C(=O)Nc2nccs2)ccc1OC(C)=O`, > 42 µM (inactive); with `Cc1nn(C)cc1CNC(=O)C1CCC(=O)N(Cc2cccc(C(F)(F)F)c2)C1` (stereo not drawn), > 42 µM (inactive).
In the case of `N#Cc1cc2c(nc1SCc1cccnc1)CCC2`, the AC50 was > 42 µM (inactive).
With `CC(C)CNc1cc(=O)n(C)c(=O)n1C` the figure was > 42 µM (inactive); with `Cc1cnc(C(=O)OCC(=O)Nc2ccc(C)c(S(=O)(=O)N(C)C)c2)cn1`, > 42 µM (inactive); with `CCC1C(c2ccccc2)NC(c2ccccc2)CC1(O)c1ccc(F)cc1` (stereo not drawn), > 42 µM (inactive).
In the case of `COC(C(=O)Nc1ccnn1C1CCN(Cc2cnn(C)c2)CC1)c1ccccc1` (stereo not drawn) it was > 42 µM (inactive); in that of `COc1ccc(S(=O)(=O)N2CCOC2CNC(=O)C(=O)NCc2ccncc2)cc1C` (stereo not drawn), > 42 µM (inactive); in that of `CN/C(=C/[N+](=O)[O-])NCCSCc1ccc(CN(C)C)o1`, > 42 µM (inactive).
